# Source: article PMC8661032, “Broad-Spectrum Antibacterial Peptide Kills Extracellular and Intracellular Bacteria Without Affecting Epithelialization” (Frontiers in Microbiology, 2021)
# Residues, ends and D or L forms follow the SMILES beside them.
# What was measured:
# E. coli [1] = experiment: microbe, parasite or virus in culture; conditions: 24 h
# Description: (§1) Briefly, bacterial colonies from blood agar plates were suspended and grown in Cation-Adjusted Mueller-Hinton Broth (CAMHB, […] Ca^2+, […] Mg^2+). The bacterial suspension was adjusted to 0.5 McFarland standard (∼1 × 10^8 colony-forming units (CFU)/ml) and serial diluted 1:200 in CAMHB (∼5 × 10^5 CFU/mL). […] The suspension was plated out on blood agar plates to confirm the CFU/ml. Both the microtiter plates and the blood agar plates were incubated at 37°C for 24 h.
# K. pneumoniae = experiment: microbe, parasite or virus in culture; conditions: 24 h
# Description: as §1
# A. baumannii = experiment: microbe, parasite or virus in culture; conditions: 24 h
# Description: as §1
# S. aureus = experiment: microbe, parasite or virus in culture; conditions: 24 h
# Description: as §1
# P. aeruginosa = experiment: microbe, parasite or virus in culture; conditions: 24 h
# Description: as §1
# E. faecium = experiment: microbe, parasite or virus in culture; conditions: 24 h
# Description: as §1
# E. cloacae = experiment: microbe, parasite or virus in culture; conditions: 24 h
# Description: as §1
# [2] = tested on: intracellular S. aureus ATCC 29213 in HaCaT cells; experiment: Intracellular infection model; type: cell-based, Staphylococcus aureus
# Description: The intracellular infection model used was modified from [Iqbal et al. (2016)] by optimizing the number of multiplicity of infection (MOI: number of bacteria per cell) and time of infection. Briefly, HaCaT cells (6.5 × 10^4/well) were seeded in 24-well plates and incubated overnight in a medium without antibiotics. The next day, approximately 1.25 × 10^5 cells/well were infected with S. aureus at an MOI of 100 in antibiotic-free media. The plates were incubated for 3 h. […] After 16 h of incubation, the extracellular media (100 μl) from each well were plated to confirm the eradication of extracellular S. aureus. Next, the cells were washed 2× with 500 μl PBS before they were lysed with 0.2% Triton-X (500 μl) for 30 min at room temperature. The lysed samples were placed on ice, and 500 μl cold Tryptic Soy Broth was added before they were plated on blood agar plates.
# [3] = tested on: S. epidermidis MRSE (SO-SEP9-1); conditions: SO-SEP9-1, 24 h
# Description: as §1
# bacteria = experiment: MIC comparisons between peptide variants (bacterium not stated); type: cell-based; conditions: betatide compared to ATX-101
# E. coli [4] = experiment: Growth inhibition assay (OD600 over 24 h); type: cell-based, Escherichia coli; set-up: Reduction of viability E. coli (60 μg/ml): key to the marks not given beside the values; conditions: LB medium
# Description: An overnight culture of Escherichia coli was diluted 1:100 in Luria-Bertani (LB) medium and allowed to grow until an optical density (OD) at 600 nm (OD600) of 0.06–0.1. APIM-peptides were prepared by serial dilution in Milli-Q H2O and kept at 4°C. Fresh LB medium (60 μl) was added to a flat-bottom microtiter plate. The bacterial suspension was diluted 1:100 in LB, and 75 μl of this suspension was added to the wells. Finally, 15 μl of APIM-peptide solution (to final concentrations 60, 120, and 240 μg/ml) or distilled water (positive control) was added to the wells, reaching a total volume of 150 μl per well. Data are presented only for the dose that separated the effect of the different peptides, i.e., 60 μg/ml. A blank sterile medium was used as negative control. The plates were incubated with shaking at 510 rpm at 37°C inside a plate reader (TECAN, Spark®), and OD was read every hour over a period of 24 h.
# The MIC for E. coli in LB medium is higher than that in CAMHB; thus, concentrations higher than the MIC given in Table 2 are used in the growth inhibition and mutagenesis assays. […]
# E. coli. Growth of E. coli in LB medium over 24 hours (Optical Density (OD) 600 nm) after addition
# of APIM-peptide variants 1-5 (60 µg/mL) at time t=0 (see Table 2). Negative (-) control is no
# bacteria added, positive (+) control is untreated bacteria.
# highest inhibition of growth.
# control (black filled line).
# Cpx mutant E. coli cells = Cpx mutant E. coli cells with constitutive active Cpx response; ref Frimodt-Moller et al., 2021; cited from earlier work
# Text: This, in turn, can reduce the fitness of the bacteria, similar to what has been shown for another peptide targeting the β-clamp called griselimycin.
# E. coli [5] = experiment: Rifampicin (RifR) mutagenesis assay after UV-C; type: cell-based, Escherichia coli; conditions: 20 μg/ml peptide, UV-C 20 mJ/cm^2, RifR assay, relative to untreated control
# Description: The rifampicin (Rif^R) mutagenesis assay was performed as described ([Nedal et al., 2020]). Briefly, an overnight culture of E. coli was diluted 1:1,000 and grown until an OD600 of 0.01. APIM-peptides (20 μg/ml) were added to LB media with glass beads (for uniform distribution of APIM-peptides) and incubated for 30 min at 37°C. The pellets were next collected, resuspended in 500 μl PBS, and exposed to UV-C (20 mJ/cm^2) in a six-well plate at 4°C. The unexposed bacteria (-UV) were otherwise handled exactly like the UV-exposed bacteria. Next, the cells were resuspended in LB media and incubated in a rotary shaker at 37°C at 250 rpm for 2 h before being harvested, diluted, and plated on LB with soft agar with and without rifampicin (100 μg/ml). Mutation frequency, Rif^R/10^8, is obtained as follows: (number of colonies on the rifampicin plate (Rif^R)/(number of colonies on LB plates without antibiotics), per milliliter of bacterial suspension. […]
# mutagenesis in E. coli more efficiently than the other peptide variants.
# Increase in mutation frequencies after treatment with UV-C (20 mJ/cm2) relative to spontaneous mutations frequencies using the RifR assay were determined. This increase is set to 100% for untreated control, and % reduction after addition of peptides 1-5 (20 μg/mL) are shown. Mean ± SD from three independent experiments. * p<0.05, ** p<0.005
# HaCaT keratinocytes = type: cell-based, human; conditions: betatide 2 μg/ml, 3-mm gap, similar to the uninfected cells
# Description: Bacterial growth was examined by plating of supernatants.
# Epithelialization was calculated from the change in the area of the gaps over time using freehand or rectangular selections in the software Fiji ImageJ 1.52p (National Institutes of Health, United States).
# =(AreaofgapinDay 1-Areaofgapineachconsecutiveday)/AreaofgapinDay 1
# HEK293 cells = tested on: HEK293 cells
# Description: HEK293 cells (6,000 cells/well) were seeded in 96-well microtiter plates. After 4 h, APIM-peptides (12–48 μg/ml) were added, and the cells were incubated without change of media for up to 4 days. Viability was measured using the 3-(4,5-dimethylthiazol-2-yl)-2,5-diphenyltetrazolium bromide (MTT) assay as described ([Gilljam et al., 2009]).
# (1 picture or pasted object on this page, not shown here)
structure (smiles),measurement,setting,value
CC[C@H](C)[C@H](NC(=O)CNC(=O)[C@H](CCCCN)NC(=O)[C@@H](NC(=O)[C@H](CC(C)C)NC(=O)[C@H](Cc1c[nH]c2ccccc12)NC(=O)[C@H](CCCNC(=N)N)NC(=O)[C@H](CC(=O)O)NC(=O)[C@H](CCSC)NC(C)=O)C(C)C)C(=O)N[C@@H](CC(C)C)C(=O)N[C@@H](CCC(N)=O)C(=O)N[C@@H](Cc1c[nH]c2ccccc12)C(=O)N[C@@H](CCCNC(=N)N)C(=O)N[C@@H](CCCCN)C(=O)N[C@H](C(=O)N[C@@H](CCCNC(=N)N)C(=O)N[C@@H](CCCNC(=N)N)C(=O)N[C@@H](CCCNC(=N)N)C(=O)N[C@@H](CCCNC(=N)N)C(=O)N[C@@H](CCCNC(=N)N)C(=O)N[C@@H](CCCNC(=N)N)C(=O)N[C@@H](CCCNC(=N)N)C(=O)N[C@@H](CCCNC(=N)N)C(=O)N[C@@H](CCCNC(=N)N)C(=O)N[C@@H](CCCNC(=N)N)C(=O)N[C@@H](CCCNC(=N)N)C(N)=O)[C@@H](C)CC [betatide] (Ac-MDRWLVKGILQWRKIRRRRRRRRRRR-NH2),MIC,E. coli [1],16 µg/mL
same,MIC,"E. coli [1]; Clinical isolate SO-ECO19-1 (ESBL-CARB-A(CTX-M-24)/D(OXA-48)), CAMHB, three independent experiments",16 µg/mL
same,MIC E. coli,"E. coli [1]; K-12 MG1655, CLSI broth microdilution, CAMHB, 37°C, visible growth, net peptide concentration",16 µg/mL
same,MIC,K. pneumoniae,16 µg/mL
same,MIC,A. baumannii,8 µg/mL
same,MIC,"A. baumannii; Clinical isolate SO-ABA19-1 (ESBL-CARBA-D), CAMHB, three independent experiments",8 µg/mL
same,MIC,S. aureus,32 µg/mL
same,MIC,"S. aureus; Clinical isolate SO-SAU19-1 (MRSA), CAMHB, three independent experiments",16 µg/mL
same,MIC,"S. aureus; Reference strain ATCC 29213, CAMHB, three independent experiments",16 µg/mL
same,MIC,P. aeruginosa,16 µg/mL
same,MIC,E. faecium,8 µg/mL
same,MIC,E. cloacae,16 µg/mL
same,reduction in intracellular bacterial load,"[2]; betatide 24 μg/ml for 16 h, MOI 100, 3 h infection, extracellular bacteria killed by gentamicin, compared to untreated control",4 ×
same,intracellular bacterial load (CFU),"[2]; concentrations of betatide lower than 24 μg/ml, 16 h",did not cause a significant reduction in CFU
same,MIC S. epidermidis MRSE,[3],16 µg/mL
same,MIC for MRSE in DMEM,[3],0.25 µg/mL
same,reduction of MIC by changes in the linker region,bacteria; from Table 2,~2 ×
same,reduction of MIC by amidation of the C-termini,bacteria; unpublished data,~4 ×
same,inhibition of growth of E. coli (OD 600 nm),"E. coli [4]; 60 µg/mL, over 24 hours, Supplementary Figure S1",lowest OD after 8 hours
same,Reduction of viability E. coli (60 μg/ml),"E. coli [4]; 60 μg/ml peptide, OD600 every hour over 24 h, relative to untreated control",++++
same,concentration tolerated by uninfected HaCaT cells,HaCaT cells,up to 40 μg/ml
same,increase in MIC,Cpx mutant E. coli cells,2 ×
same,Reduction of mutation frequency E. coli (20 μg/ml),E. coli [5],++++
same,epithelialization of MRSE-infected HaCaT cells,HaCaT keratinocytes,completed at day 4
same,Reduction of viability HEK293 (24 μg/ml),HEK293 cells,+
